In patent publication US20150071989A1, “LIPOSOMES FOR HEMATOLOGICAL TUMORS” (University of Tennessee Research Foundation, priority 2013, published 2015):

Tests used:
Jurkat cells = test: MTT cell viability assay, in vitro cytotoxicity in CD22- Jurkat cells; type: cell-based; details: Homo sapiens
Method: FIG. 14A is a graph showing the in vitro cytotoxicity of targeted, drug-loaded liposomes (solid line, “CD22 Targeted NP”) and untargeted, drug-loaded liposomes (dotted line, “Untargeted NP”) in Jurkat cells after 24 hours. The Jurkat cells lack the cell surface antigen (CD22) to which the antibody of the targeted liposomes binds. For comparison, the in vitro cytotoxic effects of free (solution) drug (N-benzyladriamycin-14-valerate (AD198)) are also shown (dashed line, “Solution Drug”). Cytotoxicity is expressed as percentage (%) cell kill as measured via (3-(4,5-dimethylthiazol-2-yl)-2,5-diphenyltetrazolium bromide (MTT) cell viability assay. The data represents the average of three measurements; the error bars represent±standard deviation.
FIG. 15A is a graph showing the in vitro cytotoxicity of targeted, drug-loaded liposomes (solid line, “CD22 Targeted NP”) and untargeted, drug-loaded liposomes (dotted line, “Untargeted NP”) in Jurkat cells after 48 hours. […] Cytotoxicity is expressed as percentage (%) cell kill as measured via (3-(4,5-dimethylthiazol-2-yl)-2,5-diphenyltetrazolium bromide (MTT) assay. The data represents the average of three measurements; the error bars represent±standard deviation.
In vitro efficacy of the liposomes was also studied using the MTT assay to assess cell viability. […] IC50 concentrations were also calculated for the solution drug and the targeted liposome. […]

Daudi cells = test: MTT cell viability assay, in vitro cytotoxicity in CD22+ Daudi cells; type: cell-based; details: Homo sapiens
Method: FIG. 14B is a graph showing the in vitro cytotoxicity of targeted, drug-loaded liposomes (solid line, “CD22 Targeted NP”) and untargeted, drug-loaded liposomes (dotted line, “Untargeted NP”) in Daudi cells after 24 hours. The Daudi cells have the cell surface antigen (CD22) to which the antibody of the targeted liposomes binds. For comparison, the in vitro cytotoxic effects of free (solution) drug (N-benzyladriamycin-14-valerate (AD198)) are also shown (dashed line, “Solution Drug”). Cytotoxicity is expressed as percentage (%) cell kill as measured via (3-(4,5-dimethylthiazol-2-yl)-2,5-diphenyltetrazolium bromide (MIT) cell viability assay. The data represents the average of three measurements; the error bars represent±standard deviation.
FIG. 15B is a graph showing the in vitro cytotoxicity of targeted, drug-loaded liposomes (solid line, “CD22 Targeted NP”) and untargeted, drug-loaded liposomes (dotted line, “Untargeted NP”) in Daudi cells after 48 hours. The Daudi cells have the cell surface antigen (CD22) to which the antibody of the targeted liposomes binds. […] Cytotoxicity is expressed as percentage (%) cell kill as measured via (3-(4,5-dimethylthiazol-2-yl)-2,5-diphenyltetrazolium bromide (MTT) cell viability assay. The data represents the average of three measurements; the error bars represent±standard deviation. […]

SMILES: CCCCC(=O)OCC(=O)[C@]1(O)Cc2c(O)c3c(c(O)c2[C@@H](O[C@H]2C[C@H](NCc4ccccc4)[C@H](O)[C@H](C)O2)C1)C(=O)c1c(OC)cccc1C3=O [AD198, N-benzyladriamycin-14-valerate]
- IC50 (Jurkat cells; Jurkat cells (CD22-), 24 hours): 1050 nM
- IC50 (Jurkat cells; Jurkat cells, 48 hours): 100 nM
- IC50 (Daudi cells; Daudi cells (CD22+), 24 hours): 250 nM
- IC50 (Daudi cells; Daudi cells, 48 hours): 100 nM
